According to patent US6436963B1 (priority 1998, dated 2002):

What was measured:
Format in all cases: in vivo
Phytophthora infestans = settings: tomatoes (cultivar Rutgers), sprayed to run off at 100 ppm, inoculated after 24 hours
Erysiphe graminis = assay: Powdery Mildew of Wheat (ERYSGT), protectant spray test on wheat seedlings; settings: wheat (cultivar Monon), sprayed to run off at 100 ppm, inoculated after 24 hours
Puccinia recondita = assay: Brown Rust (PUCCRT), protectant spray test on wheat seedlings; settings: wheat (cultivar Monon), sprayed to run off at 100 ppm, inoculated after 24 hours
Leptosphaeria nodorum = assay: Glume Blotch of Wheat (LEPTNO), protectant spray test on wheat seedlings; settings: wheat (cultivar Monon), sprayed to run off at 100 ppm, inoculated after 24 hours

## CNC(=O)C(=NOC)c1ccccc1COc1ncc(C(C)Oc2ccc(OC)cc2)cc1Cl (centres unmarked) [Example 89]
Phytophthora infestans
  PHYTIN control of plant disease: ++ (++ = 75-100% control of plant disease)
Erysiphe graminis
  ERYSGT control of plant disease: ++ (++ = 75-100% control of plant disease)
Puccinia recondita
  PUCCRT control of plant disease: ++ (++ = 75-100% control of plant disease)
Leptosphaeria nodorum
  LEPTNO control of plant disease: ++ (++ = 75-100% control of plant disease)

## CCC(O)c1cnc(OCc2ccccc2C(=NOC)C(=O)NC)c(Cl)c1 (centres unmarked) [Example 90]
Phytophthora infestans
  PHYTIN control of plant disease: ++ (++ = 75-100% control of plant disease)
Erysiphe graminis
  ERYSGT control of plant disease: ++ (++ = 75-100% control of plant disease)
Puccinia recondita
  PUCCRT control of plant disease: ++ (++ = 75-100% control of plant disease)
Leptosphaeria nodorum
  LEPTNO control of plant disease: + (+ = 25-74% control of plant disease)

## CCC(OC(C)=O)c1cnc(OCc2ccccc2C(=NOC)C(=O)NC)c(Cl)c1 (centres unmarked) [Example 91]
Phytophthora infestans
  PHYTIN control of plant disease: ++ (++ = 75-100% control of plant disease)
Erysiphe graminis
  ERYSGT control of plant disease: ++ (++ = 75-100% control of plant disease)
Puccinia recondita
  PUCCRT control of plant disease: ++ (++ = 75-100% control of plant disease)
Leptosphaeria nodorum
  LEPTNO control of plant disease: ++ (++ = 75-100% control of plant disease)

## CNC(=O)C(=NOC)c1ccccc1COc1ncc(C(OC(C)=O)c2ccc(C)cc2C)cc1Cl (centres unmarked) [Example 92]
Phytophthora infestans
  PHYTIN control of plant disease: ++ (++ = 75-100% control of plant disease)
Erysiphe graminis
  ERYSGT control of plant disease: ++ (++ = 75-100% control of plant disease)
Puccinia recondita
  PUCCRT control of plant disease: ++ (++ = 75-100% control of plant disease)
Leptosphaeria nodorum
  LEPTNO control of plant disease: ++ (++ = 75-100% control of plant disease)

## CNC(=O)C(=NOC)c1ccccc1COc1ncc(C(O)c2cccc(F)c2)cc1Cl (centres unmarked) [Example 93]
Phytophthora infestans
  PHYTIN control of plant disease: ++ (++ = 75-100% control of plant disease)
Erysiphe graminis
  ERYSGT control of plant disease: ++ (++ = 75-100% control of plant disease)
Puccinia recondita
  PUCCRT control of plant disease: ++ (++ = 75-100% control of plant disease)
Leptosphaeria nodorum
  LEPTNO control of plant disease: ++ (++ = 75-100% control of plant disease)

## CNC(=O)C(=NOC)c1ccccc1COc1ncc(C(O)(COS(=O)(=O)c2ccc(C)cc2)c2ccccc2)cc1Cl (centres unmarked) [Example 94]
Phytophthora infestans
  PHYTIN control of plant disease: ++ (++ = 75-100% control of plant disease)
Erysiphe graminis
  ERYSGT control of plant disease: ++ (++ = 75-100% control of plant disease)
Puccinia recondita
  PUCCRT control of plant disease: ++ (++ = 75-100% control of plant disease)
Leptosphaeria nodorum
  LEPTNO control of plant disease: ++ (++ = 75-100% control of plant disease)

## CNC(=O)C(=NOC)c1ccccc1COc1ncc(C(OC(C)=O)c2ccc(OC)cc2)cc1Cl (centres unmarked) [Example 95]
Phytophthora infestans
  PHYTIN control of plant disease: ++ (++ = 75-100% control of plant disease)
Erysiphe graminis
  ERYSGT control of plant disease: ++ (++ = 75-100% control of plant disease)
Puccinia recondita
  PUCCRT control of plant disease: ++ (++ = 75-100% control of plant disease)
Leptosphaeria nodorum
  LEPTNO control of plant disease: ++ (++ = 75-100% control of plant disease)

## CNC(=O)C(=NOC)c1ccccc1COc1ncc(C(OC(C)=O)c2cccc(F)c2)cc1Cl (centres unmarked) [Example 96]
Phytophthora infestans
  PHYTIN control of plant disease: ++ (++ = 75-100% control of plant disease)
Erysiphe graminis
  ERYSGT control of plant disease: ++ (++ = 75-100% control of plant disease)
Puccinia recondita
  PUCCRT control of plant disease: ++ (++ = 75-100% control of plant disease)
Leptosphaeria nodorum
  LEPTNO control of plant disease: ++ (++ = 75-100% control of plant disease)

## CNC(=O)C(=NOC)c1ccccc1COc1ncc(C(C)OCc2ccccc2OC)cc1Cl (centres unmarked) [Example 97]
Phytophthora infestans
  PHYTIN control of plant disease: − (− = 0-24% control of plant disease)
Erysiphe graminis
  ERYSGT control of plant disease: ++ (++ = 75-100% control of plant disease)
Puccinia recondita
  PUCCRT control of plant disease: ++ (++ = 75-100% control of plant disease)
Leptosphaeria nodorum
  LEPTNO control of plant disease: ++ (++ = 75-100% control of plant disease)

## CNC(=O)C(=NOC)c1ccccc1COc1ncc(C(OC(C)=O)c2ccccc2)cc1C (centres unmarked) [Example 98]
Phytophthora infestans
  PHYTIN control of plant disease: ++ (++ = 75-100% control of plant disease)
Erysiphe graminis
  ERYSGT control of plant disease: ++ (++ = 75-100% control of plant disease)
Puccinia recondita
  PUCCRT control of plant disease: ++ (++ = 75-100% control of plant disease)
Leptosphaeria nodorum
  LEPTNO control of plant disease: ++ (++ = 75-100% control of plant disease)

## CNC(=O)C(=NOC)c1ccccc1COc1ncc(C(OC)c2ccccc2F)cc1Cl (centres unmarked) [Example 99]
Phytophthora infestans
  PHYTIN control of plant disease: − (− = 0-24% control of plant disease)
Erysiphe graminis
  ERYSGT control of plant disease: ++ (++ = 75-100% control of plant disease)
Puccinia recondita
  PUCCRT control of plant disease: ++ (++ = 75-100% control of plant disease)
Leptosphaeria nodorum
  LEPTNO control of plant disease: ++ (++ = 75-100% control of plant disease)

## CNC(=O)C(=NOC)c1ccccc1COc1ncc(C(O)c2ccc(Oc3ccccc3)cc2)cc1Cl (centres unmarked) [Example 100]
Phytophthora infestans
  PHYTIN control of plant disease: ++ (++ = 75-100% control of plant disease)
Erysiphe graminis
  ERYSGT control of plant disease: ++ (++ = 75-100% control of plant disease)
Puccinia recondita
  PUCCRT control of plant disease: ++ (++ = 75-100% control of plant disease)
Leptosphaeria nodorum
  LEPTNO control of plant disease: ++ (++ = 75-100% control of plant disease)

## CNC(=O)C(=NOC)c1ccccc1COc1ncc(C(OCc2ccc(OC)cc2)c2ccccc2)cc1Cl (centres unmarked) [Example 101]
Phytophthora infestans
  PHYTIN control of plant disease: ++ (++ = 75-100% control of plant disease)
Erysiphe graminis
  ERYSGT control of plant disease: ++ (++ = 75-100% control of plant disease)
Puccinia recondita
  PUCCRT control of plant disease: ++ (++ = 75-100% control of plant disease)
Leptosphaeria nodorum
  LEPTNO control of plant disease: + (+ = 25-74% control of plant disease)

## CNC(=O)C(=NOC)c1ccccc1COc1ncc(C(O)c2ccc(C(F)(F)F)cc2)cc1Cl (centres unmarked) [Example 102]
Phytophthora infestans
  PHYTIN control of plant disease: ++ (++ = 75-100% control of plant disease)
Erysiphe graminis
  ERYSGT control of plant disease: ++ (++ = 75-100% control of plant disease)
Puccinia recondita
  PUCCRT control of plant disease: ++ (++ = 75-100% control of plant disease)
Leptosphaeria nodorum
  LEPTNO control of plant disease: ++ (++ = 75-100% control of plant disease)

## CNC(=O)C(=NOC)c1ccccc1COc1ncc(C(O)c2cccc3ccccc23)cc1Cl (centres unmarked) [Example 103]
Phytophthora infestans
  PHYTIN control of plant disease: ++ (++ = 75-100% control of plant disease)
Erysiphe graminis
  ERYSGT control of plant disease: + (+ = 25-74% control of plant disease)
Puccinia recondita
  PUCCRT control of plant disease: ++ (++ = 75-100% control of plant disease)
Leptosphaeria nodorum
  LEPTNO control of plant disease: ++ (++ = 75-100% control of plant disease)

## CNC(=O)C(=NOC)c1ccccc1COc1ncc(C(O)c2ccccn2)cc1Cl (centres unmarked) [Example 105]
Phytophthora infestans
  PHYTIN control of plant disease: ++ (++ = 75-100% control of plant disease)
Erysiphe graminis
  ERYSGT control of plant disease: ++ (++ = 75-100% control of plant disease)
Puccinia recondita
  PUCCRT control of plant disease: ++ (++ = 75-100% control of plant disease)
Leptosphaeria nodorum
  LEPTNO control of plant disease: ++ (++ = 75-100% control of plant disease)

## CNC(=O)C(=NOC)c1ccccc1COc1ncc(C(OC(C)=O)c2cccc(C)c2)cc1Cl (centres unmarked) [Example 106]
Phytophthora infestans
  PHYTIN control of plant disease: ++ (++ = 75-100% control of plant disease)
Erysiphe graminis
  ERYSGT control of plant disease: ++ (++ = 75-100% control of plant disease)
Puccinia recondita
  PUCCRT control of plant disease: ++ (++ = 75-100% control of plant disease)
Leptosphaeria nodorum
  LEPTNO control of plant disease: ++ (++ = 75-100% control of plant disease)

## CNC(=O)C(=NOC)c1ccccc1COc1ncc(C(COC(C)=O)(OC(C)=O)c2ccccc2)cc1Cl (centres unmarked) [Example 107]
Phytophthora infestans
  PHYTIN control of plant disease: ++ (++ = 75-100% control of plant disease)
Erysiphe graminis
  ERYSGT control of plant disease: ++ (++ = 75-100% control of plant disease)
Puccinia recondita
  PUCCRT control of plant disease: ++ (++ = 75-100% control of plant disease)
Leptosphaeria nodorum
  LEPTNO control of plant disease: ++ (++ = 75-100% control of plant disease)

## CNC(=O)C(=NOC)c1ccccc1COc1ncc(C(OC(C)=O)c2ccccn2)cc1Cl (centres unmarked) [Example 108]
Phytophthora infestans
  PHYTIN control of plant disease: ++ (++ = 75-100% control of plant disease)
Erysiphe graminis
  ERYSGT control of plant disease: ++ (++ = 75-100% control of plant disease)
Puccinia recondita
  PUCCRT control of plant disease: ++ (++ = 75-100% control of plant disease)
Leptosphaeria nodorum
  LEPTNO control of plant disease: ++ (++ = 75-100% control of plant disease)

## CNC(=O)C(=NOC)c1ccccc1COc1ncc(C(O)c2ccsc2)cc1Cl (centres unmarked) [Example 109]
Phytophthora infestans
  PHYTIN control of plant disease: ++ (++ = 75-100% control of plant disease)
Erysiphe graminis
  ERYSGT control of plant disease: ++ (++ = 75-100% control of plant disease)
Puccinia recondita
  PUCCRT control of plant disease: ++ (++ = 75-100% control of plant disease)
Leptosphaeria nodorum
  LEPTNO control of plant disease: ++ (++ = 75-100% control of plant disease)

## CNC(=O)C(=NOC)c1ccccc1COc1ncc(C(O)c2ccc(OC)c(OC)c2)cc1Cl (centres unmarked) [Example 110]
Phytophthora infestans
  PHYTIN control of plant disease: ++ (++ = 75-100% control of plant disease)
Erysiphe graminis
  ERYSGT control of plant disease: ++ (++ = 75-100% control of plant disease)
Puccinia recondita
  PUCCRT control of plant disease: ++ (++ = 75-100% control of plant disease)
Leptosphaeria nodorum
  LEPTNO control of plant disease: ++ (++ = 75-100% control of plant disease)

## CNC(=O)C(=NOC)c1ccccc1COc1ncc(C(OC(C)=O)c2cccc(C)c2)cc1Cl (centres unmarked) [Example 112]
Phytophthora infestans
  PHYTIN control of plant disease: ++ (++ = 75-100% control of plant disease)
Erysiphe graminis
  ERYSGT control of plant disease: ++ (++ = 75-100% control of plant disease)
Puccinia recondita
  PUCCRT control of plant disease: ++ (++ = 75-100% control of plant disease)
Leptosphaeria nodorum
  LEPTNO control of plant disease: ++ (++ = 75-100% control of plant disease)

## CNC(=O)C(=NOC)c1ccccc1COc1ncc(C(OC)c2cccc(C)c2)cc1Cl (centres unmarked) [Example 114]
Phytophthora infestans
  PHYTIN control of plant disease: − (− = 0-24% control of plant disease)
Erysiphe graminis
  ERYSGT control of plant disease: ++ (++ = 75-100% control of plant disease)
Puccinia recondita
  PUCCRT control of plant disease: ++ (++ = 75-100% control of plant disease)
Leptosphaeria nodorum
  LEPTNO control of plant disease: ++ (++ = 75-100% control of plant disease)

## CNC(=O)C(=NOC)c1ccccc1COc1cc(OC)c(C(OC)c2cccc(C)c2)cn1 (centres unmarked) [Example 115]
Phytophthora infestans
  PHYTIN control of plant disease: − (− = 0-24% control of plant disease)
Erysiphe graminis
  ERYSGT control of plant disease: + (+ = 25-74% control of plant disease)
Puccinia recondita
  PUCCRT control of plant disease: ++ (++ = 75-100% control of plant disease)
Leptosphaeria nodorum
  LEPTNO control of plant disease: ++ (++ = 75-100% control of plant disease)

## CNC(=O)C(=NOC)c1ccccc1COc1ncc(C(OC(C)=O)c2ccc(OC)c(OC)c2)cc1Cl (centres unmarked) [Example 116]
Phytophthora infestans
  PHYTIN control of plant disease: + (+ = 25-74% control of plant disease)
Erysiphe graminis
  ERYSGT control of plant disease: ++ (++ = 75-100% control of plant disease)
Puccinia recondita
  PUCCRT control of plant disease: ++ (++ = 75-100% control of plant disease)
Leptosphaeria nodorum
  LEPTNO control of plant disease: ++ (++ = 75-100% control of plant disease)

## CNC(=O)C(=NOC)c1ccccc1COc1ncc(C(OC(C)C)c2ccccc2)cc1Cl (centres unmarked) [Example 117]
Phytophthora infestans
  PHYTIN control of plant disease: − (− = 0-24% control of plant disease)
Erysiphe graminis
  ERYSGT control of plant disease: ++ (++ = 75-100% control of plant disease)
Puccinia recondita
  PUCCRT control of plant disease: ++ (++ = 75-100% control of plant disease)
Leptosphaeria nodorum
  LEPTNO control of plant disease: ++ (++ = 75-100% control of plant disease)
